One data set deals with hippocampal neurons. The data set can be described thus: toxicity of compound alone in hippocampal neuronal culture. Type of data set: cell-based, rat. To be noted: compound alone at different concentrations. As for the experimental part:
To explore the potential biological effects of compound 22 in a TRPC3 related disease model, its neuroprotective ability in primary cultured neurons (14 DIV prepared from E17 rats as described) was evaluated. The effects on neuron dendritic morphology were measured by imaging. Mature hippocampal neurons (DIV=14) were treated with CHO control medium, or naturally secreted Aβ-containing conditioned medium (7PA2), or in combination with compound 22 or Pyr3 at different concentrations, for 16 hours, followed by immunocytochemistry using an antibody against MAP2 and DAPI (data not shown). […] Hippocampal neurons (DIV=14) were treated with compound 22 or Pyr3 alone at different concentrations, followed by immunocytochemistry staining with MAP2 and DAPI (data not shown).

For another data set, the target named is T1, mmTRPC6 (Mus musculus, UniProt Q61143).
T1 construct: expressed in transfected cells; host or cells: HEK293, transient transfection, pMO vector
T1 sequence (Q61143 1-930): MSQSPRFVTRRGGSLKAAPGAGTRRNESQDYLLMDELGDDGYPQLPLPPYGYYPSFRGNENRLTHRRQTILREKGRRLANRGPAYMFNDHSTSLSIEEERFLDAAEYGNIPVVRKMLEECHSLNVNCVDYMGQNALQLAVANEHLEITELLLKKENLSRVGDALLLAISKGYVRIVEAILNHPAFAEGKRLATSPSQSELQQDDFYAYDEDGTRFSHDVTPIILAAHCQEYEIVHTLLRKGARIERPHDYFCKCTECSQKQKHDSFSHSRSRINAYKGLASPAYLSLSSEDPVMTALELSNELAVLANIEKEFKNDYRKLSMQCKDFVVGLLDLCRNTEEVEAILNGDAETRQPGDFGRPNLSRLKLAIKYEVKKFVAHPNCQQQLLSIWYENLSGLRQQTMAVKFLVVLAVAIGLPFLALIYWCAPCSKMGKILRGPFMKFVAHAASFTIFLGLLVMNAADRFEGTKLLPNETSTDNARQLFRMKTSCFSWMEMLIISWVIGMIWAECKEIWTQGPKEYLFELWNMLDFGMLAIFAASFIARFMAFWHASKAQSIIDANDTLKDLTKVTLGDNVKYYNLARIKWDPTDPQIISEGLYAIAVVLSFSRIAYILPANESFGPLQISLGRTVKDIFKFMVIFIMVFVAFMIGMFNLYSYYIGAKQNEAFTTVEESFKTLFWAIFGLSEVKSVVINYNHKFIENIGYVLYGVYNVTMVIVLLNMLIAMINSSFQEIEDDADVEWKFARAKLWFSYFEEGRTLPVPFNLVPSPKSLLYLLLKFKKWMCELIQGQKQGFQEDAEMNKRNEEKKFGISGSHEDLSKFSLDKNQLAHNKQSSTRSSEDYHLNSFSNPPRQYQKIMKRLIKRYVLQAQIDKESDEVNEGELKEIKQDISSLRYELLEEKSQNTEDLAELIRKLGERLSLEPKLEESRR
The experiment in a line: whole-cell patch clamp selectivity, HEK 293 cells overexpressing mmTRPC6. Type of data set: cell-based. To be noted: HEK293, with agonist, solutions without Ca2+, read-out: % of the current of hTRPC6 inhibited. Here is the method: Human embryonic kidney 293 (HEK293; catalog number CRL-1573) cells were cultured in Dulbecco's modified Eagle's medium (Invitrogen) supplemented with 10% fetal bovine serum and 1% penicillin-streptomycin at 37° C. and 5% CO2. Constructs cloned in pMO (a pcDNA3-modified vector) were co-transfected with GFP-pMO, using Lipofectamine 2000 (Invitrogen) according to the manufacturer's instructions. Macroscopic currents in the whole-cell patch clamp configuration were recorded 18-24 h post-transfection. The extracellular solution contained 140 mM NaCl, 6 mM KCl, 2 mM MgCl2, 10 mM HEPES, and 10 mM glucose (pH 7.4). Pipettes were made of borosilicate glass (outer diameter, 1.5 mm; inner diameter, 1.10 mm; Sutter Instruments) and fire-polished with a resistance between 2.8 and 4.0 megaohms when filled with an intracellular solution that contained 140 mM CsCl, 5 mM EGTA, and 10 mM HEPES, pH 7.2. Currents were recorded with a Multiclamp 700B amplifier (Molecular Devices) using a 1-s ramp from −100 to 100 mV. […] Data were acquired with a sampling rate of 20 kHz, low-pass filtered (10 kHz), and analyzed offline using Clampfit v10.4.2.0 (Molecular Devices). […]
On the technique in general: In patch-clamp work, channel activity is measured electrically.

Consider `CCNC(=O)c1cnn(-c2ccc(-n3ccc(Cl)c(Cl)c3=O)cc2)c1C(F)(F)F` [Compound 22], for which the “toxicity in neuronal culture” value with hippocampal neurons is reported as “lack of toxicity”. The inhibition at 10 µM at mmTRPC6 is around 39%.

Source of the values: patent US20230265068A1, “TRANSIENT RECEPTOR POTENTIAL CANONICAL 3 INHIBITORS AND METHODS OF USE THEREOF” (University of Tennessee Research Foundation, priority 2020, published 2023).
